# Test results reported in patent US4820694A, “Modifications of 3-O-demethylmycinose in macrocin and lactenocin” (priority 1986, dated 1989).
# Where two headings read alike, the source gives them in different places.
# Legend:
# Type in all cases: cell-based
# [1] = system: Streptococcus pneumoniae Park I; assay: microbe, parasite or virus in culture; conditions: Streptococcus pneumoniae
# Experimental: (§1) The MIC's in Table III were determined by standard agar-dilution assays. The MIC's in Table IV were obtained using conventional brothdilution microtiter tests.
# [2] = system: Staphylococcus aureus S13E; assay: microbe, parasite or virus in culture; conditions: Staphylococcus aureus, S13E
# Experimental: as §1
# [3] = system: Streptococcus sp. 19F; assay: broth-dilution microtiter MIC test; conditions: Streptococcus, SP.19F
# Experimental: as §1
# [4] = system: Mycoplasma hyorhinis 29E; assay: broth-dilution microtiter MIC test; conditions: Mycoplasma, 29E
# Experimental: as §1
# [5] = system: Mycoplasma gallisepticum 15E; assay: broth-dilution microtiter MIC test; conditions: Mycoplasmoides gallisepticum, 15E
# Experimental: as §1
# [6] = system: Mycoplasma gallisepticum 29C; assay: broth-dilution microtiter MIC test; conditions: Mycoplasmoides gallisepticum, 29C
# Experimental: as §1
# [7] = system: Pasteurella multocida 22A; assay: broth-dilution microtiter MIC test; conditions: Pasteurella multocida, 22A
# Experimental: as §1
# [8] = system: Pasteurella multocida 60A; assay: broth-dilution microtiter MIC test; conditions: Pasteurella multocida, 60A
# Experimental: as §1
# [9] = system: Pasteurella hemolytica 41D; assay: broth-dilution microtiter MIC test; conditions: Pasteurella, 41D
# Experimental: as §1
# [10] = system: Staphylococcus aureus 19C; assay: broth-dilution microtiter MIC test; conditions: Staphylococcus aureus, 19C
# Experimental: as §1
# [11] = system: Pasteurella multocida 17E; assay: broth-dilution microtiter MIC test; conditions: Pasteurella multocida, 17E
# Experimental: as §1
# [12] = system: Pasteurella multocida 68C; assay: broth-dilution microtiter MIC test; conditions: Pasteurella multocida, 68C
# Experimental: as §1
# [13] = system: Bordetella bronchiseptica; assay: broth-dilution microtiter MIC test; conditions: Bordetella bronchiseptica
# Experimental: as §1
# [14] = system: Pasteurella hemolytica 22C; assay: broth-dilution microtiter MIC test; conditions: Pasteurella, 22C
# Experimental: as §1
# [15] = system: Pasteurella hemolytica 23C; assay: broth-dilution microtiter MIC test; conditions: Pasteurella, 23C
# Experimental: as §1
# [16] = system: Mycoplasma synoviae 40A; assay: broth-dilution microtiter MIC test; conditions: Mycoplasmopsis synoviae, 40A
# Experimental: as §1
# [17] = system: Pasteurella multocida 40G; assay: broth-dilution microtiter MIC test; conditions: Pasteurella multocida, 40G
# Experimental: as §1
# [18] = system: Mycoplasma gallisepticum 36H; assay: broth-dilution microtiter MIC test; conditions: Mycoplasmoides gallisepticum, 36H
# Experimental: as §1
# [19] = system: Staphylococcus epidermidis EP12; assay: standard agar-dilution MIC assay
# Experimental: as §1
# [20] = system: Klebsiella pneumoniae X68; assay: standard agar-dilution MIC assay; conditions: Klebsiella pneumoniae, X68
# Experimental: as §1
# [21] = system: Escherichia coli EC14; assay: standard agar-dilution MIC assay
# Experimental: as §1
# [22] = system: Staphylococcus epidermidis EPI1; assay: standard agar-dilution MIC assay; conditions: Staphylococcus epidermidis, EPI1
# Experimental: as §1
# [23] = system: Haemophilus influenzae C.L.; assay: standard agar-dilution MIC assay; conditions: Haemophilus influenzae
# Experimental: as §1
# [24] = system: Staphylococcus aureus X1.1; assay: standard agar-dilution MIC assay; conditions: Staphylococcus aureus, X1.1
# Experimental: as §1
# [25] = system: Staphylococcus aureus X400; assay: standard agar-dilution MIC assay; conditions: Staphylococcus aureus, X400
# Experimental: as §1
# [26] = system: Streptococcus Group D 9960; assay: standard agar-dilution MIC assay; conditions: GROUPD9960, read-out: MIC
# Experimental: as §1
# [27] = system: Streptococcus pyogenes C203; assay: standard agar-dilution MIC assay; conditions: Streptococcus pyogenes, C203
# Experimental: as §1
# [28] = system: Pseudomonas aeruginosa X239; assay: standard agar-dilution MIC assay; conditions: Pseudomonas aeruginosa, X239
# Experimental: as §1
# [29] = system: Staphylococcus aureus V41; assay: standard agar-dilution MIC assay; conditions: Staphylococcus aureus, V41
# Experimental: as §1
# [30] = system: Streptococcus Group D X66; assay: standard agar-dilution MIC assay; conditions: read-out: MIC
# Experimental: as §1
# [31] = system: Haemophilus influenzae 76; assay: standard agar-dilution MIC assay; conditions: Haemophilus influenzae, 76
# Experimental: as §1
# [32] = broth-dilution microtiter, read-out: MIC
smiles,measurement,setting,value
"CCC1OC(=O)CC(O)C(C)C(OC2OC(C)C(OC3CC(C)(O)C(O)C(C)O3)C(N(C)C)C2OC(C)=O)C(CC=O)CC(C)C(=O)C=CC(C)=CC1COC1OC(C)C(OC(=O)Cc2ccccc2)C(OC(=O)Cc2ccccc2)C1OC (centres unmarked) [Compound 11, 2'-O-Acetyl-3'"",4'""-di-O-phenylacetylmacrocin]",MIC,[1],1 µg/mL
same,MIC,[2],32 µg/mL
same,MIC,[3],3.12 µg/mL
same,MIC,[4],12.5 µg/mL
same,MIC,[5],25 µg/mL
same,MIC,[6],3.12 µg/mL
same,MIC,[7],> 50 µg/mL
same,MIC,[8],> 50 µg/mL
same,MIC,[9],> 50 µg/mL
same,MIC,[10],50 µg/mL
same,MIC,[11],> 50 µg/mL
same,MIC,[12],> 50 µg/mL
same,MIC,[13],> 50 µg/mL
same,MIC,[14],> 50 µg/mL
same,MIC,[15],> 50 µg/mL
same,MIC,[16],12.5 µg/mL
same,MIC,[17],> 50 µg/mL
same,MIC,[18],50 µg/mL
same,MIC,[19],32 µg/mL
same,MIC,[20],> 128 µg/mL
same,MIC,[21],> 128 µg/mL
same,MIC,[22],32 µg/mL
same,MIC,[23],> 128 µg/mL
same,MIC,[24],16 µg/mL
same,MIC,[25],64 µg/mL
same,MIC,[26],16 µg/mL
same,MIC,[27],4 µg/mL
same,MIC,[28],> 128 µg/mL
same,MIC,[29],16 µg/mL
same,MIC,[30],32 µg/mL
same,MIC,[31],> 128 µg/mL
"CCC1OC(=O)CC(O)C(C)C(OC2OC(C)C(OC3CC(C)(O)C(O)C(C)O3)C(N(C)C)C2OC(C)=O)C(CC=O)CC(C)C(=O)C=CC(C)=CC1COC1OC(C)C(OC(C)=O)C(OC(C)=O)C1OC (centres unmarked) [Compound 3, 2',3'"",4'""-Tri-O-acetyl-macrocin]",MIC,"[1]; agar-dilution, read-out: MIC",1 µg/mL
same,MIC,[2],4 µg/mL
same,MIC,[3],3.12 µg/mL
same,MIC,[4],25 µg/mL
same,MIC,[5]; [32],> 50 µg/mL
same,MIC,[6],3.12 µg/mL
same,MIC,[7]; [32],> 50 µg/mL
same,MIC,"[8]; broth-dilution microtiter, Avian isolate, read-out: MIC",> 50 µg/mL
same,MIC,[9]; [32],> 50 µg/mL
same,MIC,[10]; [32],6.25 µg/mL
same,MIC,"[11]; broth-dilution microtiter, Bovine isolate, read-out: MIC",> 50 µg/mL
same,MIC,[12]; [32],> 50 µg/mL
same,MIC,[13]; [32],> 50 µg/mL
same,MIC,[14]; [32],> 50 µg/mL
same,MIC,[15]; [32],> 50 µg/mL
same,MIC,[16]; [32],12.5 µg/mL
same,MIC,[17]; [32],> 50 µg/mL
same,MIC,[18]; [32],> 50 µg/mL
same,MIC,"[19]; agar-dilution, read-out: MIC",2 µg/mL
same,MIC,"[20]; agar-dilution, read-out: MIC",> 128 µg/mL
same,MIC,"[21]; agar-dilution, read-out: MIC",> 128 µg/mL
same,MIC,"[22]; agar-dilution, read-out: MIC",2 µg/mL
same,MIC,"[23]; agar-dilution, Ampicillin-sensitive strain, read-out: MIC",> 128 µg/mL
same,MIC,"[24]; agar-dilution, read-out: MIC",2 µg/mL
same,MIC,[25],4 µg/mL
same,MIC,[26],4 µg/mL
same,MIC,"[27]; agar-dilution, read-out: MIC",1 µg/mL
same,MIC,"[28]; agar-dilution, read-out: MIC",> 128 µg/mL
same,MIC,"[29]; agar-dilution, Penicillin-resistant strain, read-out: MIC",2 µg/mL
same,MIC,[30],8 µg/mL
same,MIC,"[31]; agar-dilution, Ampicillin-resistant strain, read-out: MIC",2 µg/mL
